# Measured values reported in patent US11083709B2, “Compounds, compositions, and methods of increasing CFTR activity” (Proteostasis Therapeutics, Inc., priority 2015, dated 2021).
# Target: T1, ΔF508-CFTR (Homo sapiens, UniProt P13569, DEL508-508)
# T1 construct: primary lung epithelial cells (hBEs) homozygous for the Cystic Fibrosis-causing ΔF508 mutation; endogenous in cells; host or cells: primary lung epithelial cells (hBEs) homozygous for ΔF508
# Assay: hBE equivalent current (Ieq) assay, primary lung epithelial cells homozygous for ΔF508
# Type: cell-based
# Settings: compound at 10 uM and VX-809 at 1 uM, relative to VX-809 (1 uM); 24 h treatment
# Protocol: Primary lung epithelial cells homozygous for the Cystic Fibrosis-causing ΔF508 mutation were differentiated for a minimum of 4 weeks in an air-liquid interface on Costar 24 well HTS filter plates prior to the equivalent current (Ieq) measurements. Cells were apically mucus-washed for 30 minutes 24h prior to treatment with compounds. The basolateral media was removed and replaced with media containing the compound of interest diluted to its final concentration from DMSO stocks. Treated cells were incubated at 37° C. and 5% CO2 for 24 hours. At the end of the treatment period, the media was changed to the Ieq experimental solution for 30 minutes before the experiment and plates are maintained in a CO2-free incubator during this period. The plates containing the cells were then placed in pre-warmed heating blocks at 36° C.±0.5 for 15 minutes before measurements are taken. The transepithelial voltage (VT) and conductance (GT) were measured using a custom 24 channel current clamp (TECC-24) with 24 well electrode manifold. The Ieq assay measurements were made following additions with standardized time periods: • 1. The baseline VT and GT values were measured for approximately 20 minutes. • 2. Benzamil was added to block ENaC for 15 minutes. • 3. Forskolin plus VX-770 (ivacaftor) were added to maximally activate ΔF508-CFTR for 27 minutes. • 4. Bumetanide was added to inhibit the NaK2Cl cotransporter and shut-off secretion of chloride.
# The activity data captured was the area under the curve (AUC) for the traces of the equivalent chloride current. The AUC was collected from the time of the forskolin/VX-770 addition until the inhibition by bumetanide addition. Correction in response to compound treatment was scored as the increase in the AUC for compound-treated samples over that of vehicle-treated samples.
# The results are shown below in Table 2. ++ indicates activity ≥25% run at 10 uM of VX-809 at 1 uM, + indicates activity 10 to <25% run at 10 uM of VX-809 at 1 uM, ** indicates activity ≥200% of VX-809 (1 uM) with compound at 10 uM and VX-809 at 1 uM; * indicates activity 100-200% of VX-809 (1 uM) with compound at 10 uM and VX-809 at 1 uM. ^## indicates activity ≥200% of VX-809 (3 uM) with compound at 10 uM and VX-809 at 3 uM; ^# indicates activity 100-200% of VX-809 (3 uM) with compound at 10 uM and VX-809 at 3 uM.
# T1 sequence (P13569 with tags, fused parts or gaps DEL508-508): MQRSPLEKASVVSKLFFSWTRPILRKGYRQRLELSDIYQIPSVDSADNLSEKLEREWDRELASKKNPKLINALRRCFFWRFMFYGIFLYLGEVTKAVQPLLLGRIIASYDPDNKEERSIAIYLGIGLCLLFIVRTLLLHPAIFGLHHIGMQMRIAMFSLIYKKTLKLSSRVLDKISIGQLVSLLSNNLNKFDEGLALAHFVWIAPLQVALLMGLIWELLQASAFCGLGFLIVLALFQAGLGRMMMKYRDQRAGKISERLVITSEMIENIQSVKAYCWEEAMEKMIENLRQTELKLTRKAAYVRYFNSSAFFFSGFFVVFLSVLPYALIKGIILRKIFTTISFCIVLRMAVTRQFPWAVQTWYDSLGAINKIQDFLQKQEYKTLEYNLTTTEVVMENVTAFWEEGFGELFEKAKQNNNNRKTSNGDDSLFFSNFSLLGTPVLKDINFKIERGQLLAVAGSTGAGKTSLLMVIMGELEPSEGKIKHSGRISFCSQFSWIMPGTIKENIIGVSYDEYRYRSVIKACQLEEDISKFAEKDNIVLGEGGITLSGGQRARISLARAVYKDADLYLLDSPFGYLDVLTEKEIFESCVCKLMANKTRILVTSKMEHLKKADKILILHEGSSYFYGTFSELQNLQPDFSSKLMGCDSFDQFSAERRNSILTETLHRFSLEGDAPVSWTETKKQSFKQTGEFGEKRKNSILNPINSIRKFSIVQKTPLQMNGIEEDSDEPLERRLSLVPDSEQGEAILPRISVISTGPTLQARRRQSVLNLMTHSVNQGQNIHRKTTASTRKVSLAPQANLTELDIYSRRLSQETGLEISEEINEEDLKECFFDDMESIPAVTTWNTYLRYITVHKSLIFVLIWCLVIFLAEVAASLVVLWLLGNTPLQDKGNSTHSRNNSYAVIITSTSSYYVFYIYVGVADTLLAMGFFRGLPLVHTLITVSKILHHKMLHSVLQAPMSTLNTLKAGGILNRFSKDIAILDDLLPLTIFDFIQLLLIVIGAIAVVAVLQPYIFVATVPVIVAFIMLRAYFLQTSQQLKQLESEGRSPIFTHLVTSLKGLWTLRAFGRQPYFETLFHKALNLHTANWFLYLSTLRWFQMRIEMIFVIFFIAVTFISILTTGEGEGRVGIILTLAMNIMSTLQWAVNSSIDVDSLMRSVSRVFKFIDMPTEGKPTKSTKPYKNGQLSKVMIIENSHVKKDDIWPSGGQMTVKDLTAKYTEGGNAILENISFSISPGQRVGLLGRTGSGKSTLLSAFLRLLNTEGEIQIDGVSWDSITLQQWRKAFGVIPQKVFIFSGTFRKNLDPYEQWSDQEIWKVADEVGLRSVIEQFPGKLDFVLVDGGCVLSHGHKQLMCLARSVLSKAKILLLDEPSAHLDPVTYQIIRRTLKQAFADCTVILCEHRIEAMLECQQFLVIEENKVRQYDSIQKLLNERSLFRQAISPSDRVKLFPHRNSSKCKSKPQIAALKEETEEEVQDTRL
compound,measurement,value
"C[C@@H](O)c1nnc([C@H]2C[C@H](NC(=O)c3cc(-c4ccccc4)no3)C2)o1 [Example 6, N-(trans-3-(5-((R)-1-hydroxyethyl)-1,3,4-oxadiazol-2-yl)cyclobutyl)-3-phenylisoxazole-5-carboxamide]","leq: activity of compound with VX-809, % of VX-809 (AUC of equivalent chloride current)",* (* indicates activity 100-200% of VX-809 (1 uM) with compound at 10 uM and VX-809 at 1 uM)
